The test system of one data set is AMPA receptors. Briefly: Excitatory currents induced by AMPA in Xenopus oocytes (two-electrode voltage-clamp). Format: cell-based. Particulars: Xenopus oocytes injected with rat cerebral cortex poly(A+) mRNA; AMPA 10 μM; 20-24° C., OR2 medium. As for the experimental part: Study of the Excitatory Currents Induced by AMPA in Xenopus oocytes
mRNA's are prepared from cerebral cortex of male Wistar rats by the guanidinium thiocyanate/phenol/chloroform method. The poly (A^+) mRNA's are isolated by chromatography on oligo-dT cellulose and injected at a level of 50 ng per oocyte. The oocytes are incubated for 2 to 3 days at 18° C. to permit expression of the receptors and are then stored at 8-10° C.
Electrophysiological recording is carried out in a Plexiglass® chamber at 20-24° C. in OR2 medium (J. Exp. Zool., 1973, 184, 321-334) by the “voltage-clamp” method using two electrodes, with a third electrode placed in the bath serving as reference.
All the compounds are applied via the incubation medium and the electric current is measured at the end of the application period. AMPA is used in a concentration of 10 μM. For each compound studied, the concentration that doubles (EC2X) or quintuples (EC5X) the intensity of the current induced by AMPA alone (5 to 50 nA) is determined.
For orientation: Two-electrode voltage clamp is typically applied to oocytes expressing channels or transporters.
Turning to `CS(=O)(=O)NCc1cccc(Oc2ccc3c(c2)S(=O)(=O)NC2CCCN32)c1` (stereo not drawn) [Example 2, N-{3-[(5,5-Dioxido-2,3,3a,4-tetrahydro-1H-pyrrolo[2,1-c][1,2,4]-benzothiadiazin-7-yl)oxy]benzyl}methanesulphonamide], the “EC2X (concentration that doubles the intensity of the current induced by AMPA alone)” value (“EC2X” below) came out at 0.35 µM and the “EC5X (concentration that quintuples the intensity of the current induced by AMPA alone)” value (“EC5X” below) was found to be 2.6 µM.

Consider `CS(=O)(=O)NCc1ccc(Oc2ccc3c(c2)S(=O)(=O)NC2CCCN32)cc1` (stereo not drawn) [Example 21, N-{4-[(5,5-Dioxido-2,3,3a,4-tetrahydro-1H-pyrrolo[2,1-c][1,2,4]-benzothiadiazin-7-yl)oxy]benzyl}methanesulphonamide], for which the “EC2X” value came out at 0.1 µM and the “EC5X” value is 0.56 µM. As to `Cl.NCc1cccc(Oc2ccc3c(c2)S(=O)(=O)NC2CCCN32)c1` (stereo not drawn) [Example 1, {3-[(5,5-Dioxido-2,3,3a,4-tetrahydro-1H-pyrrolo[2,1-c][1,2,4]-benzothiadiazin-7-yl)oxy]phenyl}methanamine hydrochloride], the “EC2X” value came to 3.5 µM and the “EC5X” value was determined as 9.2 µM.

System in a further data set: not given
Test: not given
Details: not given
For orientation: melting point means the temperature of the solid-liquid transition. `CC(=O)NCc1cccc(Oc2ccc3c(c2)S(=O)(=O)NC2CCCN32)c1` (stereo not drawn) [Example 3, N-{3-[(5,5-Dioxido-2,3,3a,4-tetrahydro-1H-pyrrolo[2,1-c][1,2,4]-benzothiadiazin-7-yl)oxy]benzyl}acetamide] registered a melting point of 58 °C. `O=S1(=O)NC2CCCN2c2ccc(Oc3cccc(CNS(=O)(=O)C(F)(F)F)c3)cc21` (stereo not drawn) [Example 9, N-{3-[(5,5-Dioxido-2,3,3a,4-tetrahydro-1H-pyrrolo[2,1-c][1,2,4]-benzothiadiazin-7-yl)oxy]benzyl}(trifluoro)methanesulphonamide] yielded a melting point of 104 to 113 °C. `CC(C)S(=O)(=O)NCc1cccc(Oc2ccc3c(c2)S(=O)(=O)NC2CCCN32)c1` (stereo not drawn) [Example 18, N-{3-[(5,5-Dioxido-2,3,3a,4-tetrahydro-1H-pyrrolo[2,1-c][1,2,4]-benzothiadiazin-7-yl)oxy]benzyl}propane-2-sulphonamide] came in with a melting point of 112 to 118 °C.

For the origin of these results see patent publication US20040254161A1, “New benzothiazine and benzothiadiazine compounds” (priority 2003, published 2004).
